According to PubChem BioAssay AID256 (DTP/NCI, 2004):
Inconclusive results and toxic doses are left out.

Tested on: CD2F1 mice, L1210 leukemia ip, survival T/C
Test: NCI In Vivo Anticancer Drug Screen. Data for tumor model L1210 Leukemia (intraperitoneal) in CD2F1 (CDF1) mice
Conditions: endpoint: mean survival time, higher = longer survival
Method in brief: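 Mice carrying a transplanted tumor received test compound or vehicle alone. The value is the measurement in the treated group divided by that in the vehicle-treated control group.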

[1] = dose: 100.0 mg/kg/injection, schedule: Q04DX003 (ip), vehicle: saline with Tween-80
[2] = dose: 200.0 mg/kg/injection, schedule: Q04DX003 (ip), vehicle: saline with Tween-80
[3] = dose: 400.0 mg/kg/injection, schedule: Q04DX003 (ip), vehicle: saline with Tween-80
[4] = dose: 100.0 mg/kg/injection, schedule: Q01DX009 (ip), vehicle: saline with Tween-80
[5] = dose: 200.0 mg/kg/injection, schedule: Q01DX009 (ip), vehicle: saline with Tween-80
[6] = dose: 400.0 mg/kg/injection, schedule: Q01DX009 (ip), vehicle: saline with Tween-80

O=C(O)c1ccc(C(=O)O)s1.[NH-]C1CCCCC1[NH-].[Pt+2]
T/C (dose: 2.5 mg/kg/injection, schedule: Q04DX003 (ip), vehicle: dextrose): 113 % of control
T/C (dose: 5.0 mg/kg/injection, schedule: Q04DX003 (ip), vehicle: dextrose): 118 % of control
T/C (dose: 20.0 mg/kg/injection, schedule: Q04DX003 (ip), vehicle: dextrose): 113 % of control

c1ccc2c(c1)C1c3cccc[n+]3C2C2C1CC1C3c4ccccc4C(C12)[n+]1ccccc13 (centres undefined)
T/C (dose: 12.5 mg/kg/injection, schedule: Q04DX003 (ip), vehicle: saline): 98 % of control

C[S+](C)CCC1NC(=O)NC1=O (centres undefined)
T/C [1]: 107 % of control
T/C (dose: 100.0 mg/kg/injection, schedule: Q04DX003 (ip), vehicle: saline): 98 % of control
T/C [2]: 102 % of control
T/C (dose: 200.0 mg/kg/injection, schedule: Q04DX003 (ip), vehicle: saline): 102 % of control
T/C [3]: 93 % of control

CCCCNC(=O)CC(C)C(=O)O (centres undefined)
T/C [1]: 102 % of control
T/C [2]: 98 % of control
T/C [3]: 102 % of control

CC(=O)NC(CO)C(O)c1ccc(N)cc1 (centres undefined)
T/C (dose: 100.0 mg/kg/injection, schedule: Q01DX001 (ip), vehicle: saline with Tween-80): 97 % of control
T/C [4]: 102 % of control
T/C (dose: 200.0 mg/kg/injection, schedule: Q01DX001 (ip), vehicle: saline with Tween-80): 101 % of control
T/C [5]: 96 % of control
T/C (dose: 400.0 mg/kg/injection, schedule: Q01DX001 (ip), vehicle: saline with Tween-80): 104 % of control
T/C [6]: 96 % of control

O=C1C=CC(=O)C2CC=CCC12 (centres undefined)
T/C (dose: 10.0 mg/kg/injection, schedule: Q01DX009 (ip), vehicle: saline with Tween-80): 103 % of control
T/C (dose: 12.5 mg/kg/injection, schedule: Q04DX003 (ip), vehicle: saline with Tween-80): 101 % of control
T/C (dose: 20.0 mg/kg/injection, schedule: Q01DX009 (ip), vehicle: saline with Tween-80): 107 % of control
T/C (dose: 25.0 mg/kg/injection, schedule: Q04DX003 (ip), vehicle: saline with Tween-80): 104 % of control
T/C (dose: 40.0 mg/kg/injection, schedule: Q01DX009 (ip), vehicle: saline with Tween-80): 98 % of control
T/C (dose: 50.0 mg/kg/injection, schedule: Q04DX003 (ip), vehicle: saline with Tween-80): 98 % of control
T/C [1]: 100 % of control
T/C [2]: 93 % of control
T/C [3]: 100 % of control

CC(=O)c1ccc(C(=O)CC(O)(C(F)(F)F)C(F)(F)F)cc1
T/C (dose: 50.0 mg/kg/injection, schedule: Q01DX009 (ip), vehicle: other): 98 % of control
T/C (dose: 100.0 mg/kg/injection, schedule: Q01DX009 (ip), vehicle: other): 104 % of control
T/C (dose: 100.0 mg/kg/injection, schedule: Q04DX003 (ip), vehicle: other): 95 % of control
T/C (dose: 200.0 mg/kg/injection, schedule: Q01DX009 (ip), vehicle: other): 106 % of control
T/C (dose: 200.0 mg/kg/injection, schedule: Q04DX003 (ip), vehicle: other): 97 % of control

CS(=O)(=O)Nc1ccc(Nc2c3ccccc3nc3cc([N+](=O)[O-])ccc23)cc1
T/C (dose: 7.0 mg/kg/injection, schedule: Q01DX009 (ip), vehicle: saline): 237 % of control
T/C (dose: 10.0 mg/kg/injection, schedule: Q01DX009 (ip), vehicle: saline): 155 % of control
T/C (dose: 12.5 mg/kg/injection, schedule: Q01DX001 (ip), vehicle: saline): 175 % of control
T/C (dose: 25.0 mg/kg/injection, schedule: Q01DX001 (ip), vehicle: saline): 195 % of control
T/C (dose: 50.0 mg/kg/injection, schedule: Q01DX001 (ip), vehicle: saline): 170 % of control
T/C (dose: 100.0 mg/kg/injection, schedule: Q01DX001 (ip), vehicle: saline): 116 % of control

Nc1ncnc2c1nc([Se])n2C1OC(CO)C(O)C1O (centres undefined)
T/C (dose: 12.5 mg/kg/injection, schedule: Q01DX005 (ip), vehicle: water): 100 % of control
T/C (dose: 25.0 mg/kg/injection, schedule: Q01DX005 (ip), vehicle: water): 97 % of control
T/C (dose: 50.0 mg/kg/injection, schedule: Q01DX005 (ip), vehicle: water): 100 % of control
T/C (dose: 100.0 mg/kg/injection, schedule: Q01DX005 (ip), vehicle: water): 95 % of control
T/C (dose: 200.0 mg/kg/injection, schedule: Q01DX005 (ip), vehicle: water): 90 % of control

CC12C(=O)C(C)(C(c3ccccc3)=C1c1ccccc1)C([N+](=O)[O-])C2c1ccccc1 (centres undefined)
T/C (dose: 100.0 mg/kg/injection, schedule: Q04DX002 (ip), vehicle: saline with Tween-80): 94 % of control
T/C (dose: 200.0 mg/kg/injection, schedule: Q04DX002 (ip), vehicle: saline with Tween-80): 97 % of control
T/C (dose: 400.0 mg/kg/injection, schedule: Q04DX002 (ip), vehicle: saline with Tween-80): 94 % of control

COC(=O)C1C2CCC(C2)C1C (centres undefined)
T/C (dose: 25.0 mg/kg/injection, schedule: Q01DX009 (ip), vehicle: saline with Tween-80): 93 % of control
T/C (dose: 50.0 mg/kg/injection, schedule: Q01DX009 (ip), vehicle: saline with Tween-80): 104 % of control
T/C [4]: 98 % of control
T/C [1]: 90 % of control

Nc1nc(N)c2nc(CN(CCc3ccccc3)c3ccc(C(=O)NC(CCC(=O)O)C(=O)O)cc3)cnc2n1 (centres undefined)
T/C (dose: 20.0 mg/kg/injection, schedule: Q01DX009 (ip), vehicle: sodium bicarbonate): 100 % of control
T/C (dose: 40.0 mg/kg/injection, schedule: Q01DX009 (ip), vehicle: sodium bicarbonate): 105 % of control
T/C (dose: 80.0 mg/kg/injection, schedule: Q01DX009 (ip), vehicle: sodium bicarbonate): 108 % of control
T/C (dose: 100.0 mg/kg/injection, schedule: Q01DX001 (ip), vehicle: sodium bicarbonate): 96 % of control
T/C (dose: 200.0 mg/kg/injection, schedule: Q01DX001 (ip), vehicle: sodium bicarbonate): 98 % of control
T/C (dose: 400.0 mg/kg/injection, schedule: Q01DX001 (ip), vehicle: sodium bicarbonate): 102 % of control

COc1ccc(C(=Nc2ccc(C)cc2)c2ccc([N+](=O)[O-])cc2)cc1
T/C [4]: 94 % of control
T/C [1]: 98 % of control
T/C [5]: 98 % of control
T/C [2]: 98 % of control
T/C [6]: 96 % of control
T/C [3]: 98 % of control

O=C(Nc1ccc(Cl)c(C(F)(F)F)c1)Nc1cc(C(F)(F)F)ccc1Sc1cc(Cl)c(Cl)cc1S(=O)(=O)O
T/C [4]: 101 % of control

CNS(=O)(=O)Cc1ccccc1
T/C [1]: 91 % of control
T/C [2]: 97 % of control
T/C [3]: 94 % of control

O=C(O)c1ccccc1C(=O)Nc1ccc([N+](=O)[O-])cc1
T/C [1]: 98 % of control
T/C [3]: 91 % of control

COC1CC(C)OC(OC2C(C)/C=C/C(=O)OC(C)C(COC3OC(C)C(O)C(OC)C3OC)C3OC3/C=C/C(=O)C(C)(O)CC2C)C1O (centres undefined)
T/C (dose: 125.0 mg/kg/injection, schedule: Q01DX001 (ip), vehicle: saline sonified): 100 % of control
T/C (dose: 250.0 mg/kg/injection, schedule: Q01DX001 (ip), vehicle: saline sonified): 101 % of control
T/C (dose: 500.0 mg/kg/injection, schedule: Q01DX001 (ip), vehicle: saline sonified): 95 % of control

CC1(C)C2CCC1(C(=O)O)C(=O)C2 (centres undefined)
T/C [1]: 92 % of control
T/C [2]: 92 % of control
T/C [3]: 87 % of control

CCCCOC(=S)S.[Pt]
T/C (dose: 18.75 mg/kg/injection, schedule: Q04DX003 (ip), vehicle: saline with Tween-80): 101 % of control
T/C (dose: 37.5 mg/kg/injection, schedule: Q04DX003 (ip), vehicle: saline with Tween-80): 93 % of control
T/C (dose: 75.0 mg/kg/injection, schedule: Q04DX003 (ip), vehicle: saline with Tween-80): 101 % of control
T/C (dose: 150.0 mg/kg/injection, schedule: Q04DX003 (ip), vehicle: saline with Tween-80): 101 % of control
T/C (dose: 300.0 mg/kg/injection, schedule: Q04DX003 (ip), vehicle: saline with Tween-80): 97 % of control

CC/C=C(\C)C(CCC)(CN=O)C(=O)OCC (centres undefined)
T/C (dose: 75.0 mg/kg/injection, schedule: Q01DX001 (ip), vehicle: saline): 101 % of control
T/C (dose: 150.0 mg/kg/injection, schedule: Q01DX001 (ip), vehicle: saline): 97 % of control
T/C (dose: 300.0 mg/kg/injection, schedule: Q01DX001 (ip), vehicle: saline): 95 % of control

O=S(=O)(/C=C\c1ccccc1)/C=C/c1ccccc1
T/C [1]: 91 % of control
T/C [3]: 86 % of control

CN(Cc1ccc[n+](Cc2ccc(S(=O)(=O)F)cc2)c1)C(=O)COc1ccc(Cl)c(Cl)c1
T/C [1]: 98 % of control
T/C [2]: 96 % of control

Nc1ccc2c(c1)-c1ccccc1C2O (centres undefined)
T/C [1]: 92 % of control
T/C [2]: 101 % of control
T/C [3]: 99 % of control
